Measured values published in BindingDB's records for doi:10.1016/j.bmcl.2015.04.057 (Merck Research Laboratories, 2015).

What was measured:
Coagulation factor IX [1] = molecular target: T1, Coagulation factor IX (Homo sapiens, UniProt P00740); test: (§1) Inhibition of human coagulation factor 9a using fluorescent peptide CH3SO2-D-CHG-Gly-Arg-AFC-AcoH as substrate
Coagulation factor IX [2] = molecular target: T1, Coagulation factor IX; test: as §1; remark: listed apart in the source

T1 sequence (P00740 47-191 limits assumed): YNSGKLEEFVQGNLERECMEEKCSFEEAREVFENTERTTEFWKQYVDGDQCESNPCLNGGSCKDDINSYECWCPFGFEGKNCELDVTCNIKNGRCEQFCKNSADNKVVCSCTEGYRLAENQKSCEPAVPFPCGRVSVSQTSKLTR
T1 sequence (P00740 227-461 limits assumed): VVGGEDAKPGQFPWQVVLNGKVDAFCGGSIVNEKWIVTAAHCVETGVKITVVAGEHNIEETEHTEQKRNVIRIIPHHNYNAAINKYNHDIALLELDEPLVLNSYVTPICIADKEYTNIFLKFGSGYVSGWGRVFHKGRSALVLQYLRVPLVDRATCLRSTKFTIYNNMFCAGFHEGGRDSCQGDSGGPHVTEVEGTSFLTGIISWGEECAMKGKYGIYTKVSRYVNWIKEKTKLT

Cc1cc2nc([C@@H](CNC(=O)c3c(Cl)cc(-n4cnnc4)cc3Cl)c3ccccc3)[nH]c2cc1C
Ki (Coagulation factor IX [1]): 15.4 nM | Ki (Coagulation factor IX [2]): 15 nM
